pIC50: −log10 of the molar value.
System: PANC-1 pERK
Test: Phospho-ERK 1/2 assay
Assay type: cell-based
Conditions: Homo sapiens, PANC-1, 3 h, PANC-1 cells, compound incubation 3 hours, pERK normalised with GAPDH antibody staining
Experimental: Allow PNAC-1 cell growth in a T75 flask in DMEM and 10% 1 fetal calf serum (FCS; Gibco®), using standard tissue culture procedures until ~80% confluency is achieved. Day 1, seed 6000 cells/well in 384 well plate and incubate at 37° C., 5% CO2. Add diluted compound by Echo 550, final DMSO is 0.5%, incubate cells at 37° C., 5% CO2 for 3 hours. Then, remove medium and fix cells with 3.7% formaldehyde in PBS (PFA) by Apricot. Wash with PBS once. Permeabilize cells with cold 100% methanol and repeat wash once with PBS once. Add Li-Cor blocking buffer to each well and incubate 1.5 hours at RT. Remove blocking buffer and add primary antibody mixture (rabbit anti pERK, mouse anti GAPDH). Incubate at 4° C. overnight. Day 2, wash with PBST (Tween-20 in PBS) with total 3 times and then add secondary antibody mixture (goat anti rabbit 800CW (1:800 dilution in the combined solution) and goat anti mouse 680RD (1:800 dilution in the combined solution)), incubate for 60 minutes at RT away from light. Repeat washing with PBST 3 times. After final wash, centrifuge plate up-side-down at 1000 rpm to remove wash solution completely from wells. Before plate scanning, clean the bottom plate surface and the Odyssey© Imager scanning bed (if applicable) with moist, lint-free tissue to avoid any obstructions during scanning. Scan plate with detection in both 700 and 800 nm channels.

Compared with `C=C1CN2CCC[C@@]2(Cn2c(=O)nc3c4c(nc(-c5cc(O)cc6ccc(F)c(CC)c56)c(F)c42)OC[C@@H]2[C@@H]4CC[C@H](CN32)N4)C1` (single isomer, unassigned) [Example 46a], `C=C1CN2CCC[C@]2(Cn2c(=O)nc3c4c(nc(-c5cc(O)cc6ccc(F)c(CC)c56)c(F)c42)OC[C@@H]2[C@@H]4CC[C@H](CN32)N4)C1` (single isomer, unassigned) [Example 46b] is 0.68 log units lower in pIC50: 8.23 for the first, 7.55 for the second. The first is the more potent here.

`C#Cc1c(F)ccc2cccc(-c3nc4c5c(nc(=O)n(C[C@]67CCCN6CC(=C)C7)c5c3F)N3C[C@H]5CC[C@H](N5)[C@H]3[C@H](C)O4)c12` (single isomer, unassigned) [Example 200b] and `C#Cc1c(F)ccc2cccc(-c3nc4c5c(nc(=O)n(C[C@]67CC(=C)CN6C[C@@H](F)C7)c5c3F)N3C[C@H]5CC[C@H](N5)[C@H]3[C@H](C)O4)c12` (single isomer, unassigned) [Example 202b] are within 0.2 log units of each other in pIC50: 6.16 for the first, 6.00 for the second.

First: CCc1c(F)ccc2cc(O)cc(-c3nc4c5c(nc(=O)n(C[C@@]67CCCN6C[C@H](F)C7)c5c3F)N3C[C@@](C)(O)CCC3CO4)c12 (single isomer, unassigned) [Example 350a1]
Second: CCc1c(F)ccc2cc(O)cc(-c3nc4c5c(nc(=O)n(C[C@@]67CCCN6C[C@H](F)C7)c5c3F)N3C[C@H]5CC[C@H](N5)[C@H]3CO4)c12 [Example 45, (8aS,9S,12R)-5-(8-ethyl-7-fluoro-3-hydroxynaphthalen-1-yl)-4-fluoro-3-(((2R,7aS)-2-fluorotetrahydro-1H-pyrrolizin-7a(5H)-yl)methyl)-8a,9,10,11,12,13-hexahydro-8H-7-oxa-1,3,6,13a,14-pentaaza-9,12-methanonaphtho[1,8-ab]heptalen-2(3H)-one]
The pIC50 of the first is 0.82 log units lower: 6.82 for the first, 7.64 for the second. The second is the more potent here.

Going from `CCc1c(F)ccc2cc(O)cc(-c3nc4c5c(nc(=O)n(C(C)[C@H]6CCN6C)c5c3F)N3C[C@H]5CC[C@H](N5)[C@H]3[C@H](C)O4)c12` (single isomer, unassigned) [Example 376a] to `CCc1c(F)ccc2cc(O)cc(-c3nc4c5c(nc(=O)n(C[C@@]67CCCN6C[C@H](F)C7)c5c3F)N3C[C@H]5CC[C@H](N5)[C@H]3[C@H](C)O4)c12` [Example 227], the pIC50 rises from 6.84 to 8.28 (1.44 log units). The second is the more potent here.

Going from `C#Cc1c(F)ccc2cccc(-c3nc4c5c(nc(=O)n(C[C@@]67CCCN6C[C@H](F)C7)c5c3F)N3C[C@H]5CC[C@H](N5)[C@H]3CO4)c12` [Example 1, (5aS,6S,9R)-2-(8-ethynyl-7-fluoronaphthalen-1-yl)-1-fluoro-13-(((2R,7aS)-2-fluorotetrahydro-1H-pyrrolizin-7a(5H)-yl)methyl)-5a,6,7,8,9,10-hexahydro-5H-4-oxa-3,10a,11,13,14-pentaaza-6,9-methanonaphtho[1,8-ab]heptalen-12(13H)-one] to `C#Cc1c(F)ccc2cccc(-c3nc4c5c(nc(=O)n(C[C@@]67CCCN6C[C@H](F)C7)c5c3F)N3C[C@H]5CC[C@H](N5)[C@H]3[C@H](C)O4)c12` [Example 199, (5S,5aS,6S,9R)-2-(8-ethynyl-7-fluoronaphthalen-1-yl)-1-fluoro-13-(((2R,7aS)-2-fluorotetrahydro-1H-pyrrolizin-7a(5H)-yl)methyl)-5-methyl-5a,6,7,8,9,10-hexahydro-5H-4-oxa-3,10a,11,13,14-pentaaza-6,9-methanonaphtho[1,8-ab]heptalen-12(13H)-one], the pIC50 rises from 6.41 to 7.43 (1.02 log units).

Compared with `C#Cc1c(F)ccc2cccc(-c3nc4c5c(nc(=O)n(CC67CCCN6CC(=C)C7)c5c3F)N3C[C@H]5CC[C@H](N5)[C@H]3CO4)c12` (stereo partly drawn) [Example 2], `C#Cc1c(F)ccc2cc(O)cc(-c3nc4c5c(nc(=O)n(CC67CCCN6CC(=C)C7)c5c3F)N3C[C@H]5CC[C@H](N5)[C@H]3CO4)c12` (stereo partly drawn) [Example 24] is 0.75 log units lower in pIC50: 7.82 for the first, 7.07 for the second. The first is the more potent here.

First: C=C1CN2CC(=C)CC2(Cn2c(=O)nc3c4c(nc(-c5cc(O)cc6ccc(F)c(CC)c56)c(F)c42)OC[C@@H]2[C@@H]4CC[C@H](CN32)N4)C1 [Example 47]
Second: C=C1CN2CCCC2(Cn2c(=O)nc3c4c(nc(-c5cc(O)cc6ccc(F)c(CC)c56)c(F)c42)O[C@@H](C)[C@@H]2[C@@H]4CC[C@H](CN32)N4)C1 (stereo partly drawn) [Example 228]
The pIC50 of the first is 1.52 log units lower: 6.20 for the first, 7.72 for the second. The second is the more potent here.

`C#Cc1c(F)ccc2cc(O)cc(-c3nc4c5c(nc(=O)n(CC67CCCN6CC(=C)C7)c5c3F)N3C[C@H]5CC[C@H](N5)[C@H]3[C@H](C)O4)c12` (stereo partly drawn) [Example 222] and `C#Cc1c(F)ccc2cc(O)cc(-c3nc4c5c(cc(=O)n(C[C@@]67CCCN6CC(=C)C7)c5c3F)N3C[C@H]5CC[C@H](N5)[C@H]3[C@H](C)O4)c12` [Example 330, (5S,5aS,6S,9R)-2-(8-ethynyl-7-fluoro-3-hydroxynaphthalen-1-yl)-1-fluoro-5-methyl-14-(((S)-2-methylenetetrahydro-1H-pyrrolizin-7a(5H)-yl)methyl)-5a,6,7,8,9,10-hexahydro-5H-6,9-epiminoazepino[2′,1′:3,4][1,4] oxazepino[5,6,7-de][1,6]naphthyridin-13(14H)-one] are within 0.2 log units of each other in pIC50: 6.95 for the first, 6.77 for the second.

Compared with `C#Cc1c(F)ccc2cc(O)cc(-c3c(F)c4c5c(cc(=O)n(C[C@@]67CCCN6C[C@H](F)C7)c5c3F)N3C[C@H]5CC[C@H](N5)[C@H]3CO4)c12` [Example 332, (5aS,6S,9R)-2-(8-ethynyl-7-fluoro-3-hydroxynaphthalen-1-yl)-1,3-difluoro-14-(((2R,7aS)-2-fluorotetrahydro-1H-pyrrolizin-7a(5H)-yl)methyl)-5a,6,7,8,9,10-hexahydro-5H-6,9-epiminoazepino[2′,1′:3,4][1,4] oxazepino[5,6,7-de]quinolin-13(14H)-one], `C#Cc1c(F)ccc2cccc(-c3nc4c5c(nc(=O)n(C[C@@]6(C)CCN6C)c5c3F)N3C[C@H]5CC[C@H](N5)[C@H]3[C@H](C)O4)c12` [Example 357, (5S,5aS,6S,9R)-13-(((R)-1,2-dimethylazetidin-2-yl)methyl)-2-(8-ethynyl-7-fluoronaphthalen-1-yl)-1-fluoro-5-methyl-5a,6,7,8,9,10-hexahydro-5H-4-oxa-3,10a,11,13,14-pentaaza-6,9-methanonaphtho[1,8-ab]heptalen-12(13H)-one] is 0.80 log units higher in pIC50: 6.11 for the first, 6.91 for the second.

In the case of `C#Cc1c(F)ccc2cccc(-c3nc4c5c(nc(=O)n([C@H](C)CN6[C@@H]7CC[C@H]6COC7)c5c3F)N3C[C@H]5CC[C@H](N5)[C@H]3[C@H](C)O4)c12` [Example 341, (5S,5aS,6S,9R)-13-((R)-1-((1R,5S)-3-oxa-8-azabicyclo[3.2.1]octan-8-yl)propan-2-yl)-2-(8-ethynyl-7-fluoronaphthalen-1-yl)-1-fluoro-5-methyl-5a,6,7,8,9,10-hexahydro-5H-4-oxa-3,10a,11,13,14-pentaaza-6,9-methanonaphtho[1,8-ab]heptalen-12(13H)-one], the pIC50 was 7.15.

Same assay, conditions: Homo sapiens; PANC-1 cells, compound incubation 3 hours, pERK normalised with GAPDH antibody staining

For `C#Cc1c(F)ccc2cc(O)cc(-c3nc4c5c(nc(=O)n(C[C@@]67CCCN6C[C@H](F)C7)c5c3F)N3C[C@H]5CC[C@H](N5)[C@H]3CO4)c12` [Example 23, (5aS,6S,9R)-2-(8-ethynyl-7-fluoro-3-hydroxynaphthalen-1-yl)-1-fluoro-13-(((2R,7aS)-2-fluorotetrahydro-1H-pyrrolizin-7a(5H)-yl)methyl)-5a,6,7,8,9,10-hexahydro-5H-4-oxa-3,10a,11,13,14-pentaaza-6,9-methanonaphtho[1,8-ab]heptalen-12(13H)-one], the pIC50 was 7.02.

Same assay, conditions: PANC-1 cells, compound incubation 3 hours, pERK normalised with GAPDH antibody staining

`C#Cc1c(F)ccc2cccc(-c3nc4c5c(nc(=O)n(CC(C)(CO)N(C)C)c5c3F)N3C[C@H]5CC[C@H](N5)[C@H]3[C@H](C)O4)c12` (single isomer, unassigned) [Example 365b] and `CCc1c(F)ccc2cc(O)cc(-c3nc4c5c(nc(=O)n(CC(C)(CO)N(C)C)c5c3F)N3C[C@H]5CC[C@H](N5)[C@H]3[C@H](C)O4)c12` (single isomer, unassigned) [Example 373b] are within 0.2 log units of each other in pIC50: 6.96 for the first, 6.86 for the second.

`C#Cc1c(F)ccc2cccc(-c3nc4c5c(nc(=O)n(C6C7CC6CN(C)C7)c5c3F)N3C[C@H]5CC[C@H](N5)[C@H]3[C@H](C)O4)c12` (single isomer, unassigned) [Example 371a] and `C#Cc1c(F)ccc2cccc(-c3nc4c5c(nc(=O)n(C(C)[C@H]6CCN6C)c5c3F)N3C[C@H]5CC[C@H](N5)[C@H]3[C@H](C)O4)c12` (single isomer, unassigned) [Example 372a] are within 0.2 log units of each other in pIC50: 6.52 for the first, 6.41 for the second.

Compared with `C#Cc1c(F)ccc2cccc(-c3nc4c5c(nc(=O)n(C6C7CC6CN(C)C7)c5c3F)N3C[C@H]5CC[C@H](N5)[C@H]3[C@H](C)O4)c12` (single isomer, unassigned) [Example 371b], `C#Cc1c(F)ccc2cccc(-c3nc4c5c(nc(=O)n(C(C)[C@H]6CCN6C)c5c3F)N3C[C@H]5CC[C@H](N5)[C@H]3[C@H](C)O4)c12` (single isomer, unassigned) [Example 372b] is 1.05 log units higher in pIC50: 6.10 for the first, 7.15 for the second.

With `CCc1c(F)ccc2cc(O)cc(-c3nc4c5c(nc(=O)n(C(C)[C@H]6CCN6C)c5c3F)N3C[C@H]5CC[C@H](N5)[C@H]3[C@H](C)O4)c12` (single isomer, unassigned) [Example 376b] the pIC50 was 6.88.
